This is an account of results in patent US11963985B2, “Coral composite extract, composition including the same and method of producing the same” (National Sun Yat-Sen University, priority 2018, dated 2024).

The data set is described as follows: partition coefficient (log P) of EXC-B. Format: physicochemical. How it is done:
Next, as STEP 103 depicts, the crude extraction step is performed on the coral staring material to obtain a crude extract, in which a first solvent is applied. In one embodiment, there is no limitation of the kind of the first solvent. However, the one having a polarity index P′ value closer to a polarity index P′ value of the coral composite extract is the better. For example, a partition coefficient (log P) of EXC-B is about 0.9 and an octanol-water partition coefficient (Clog P) of EXC-B is about 3.5568. Therefore, the polarity index P′ value of the first solvent can be 0.1 to 6.0, but 1.0 to 5.4 is better.

Regarding excavatolide B [EXC-B], the “partition coefficient (log P)” value is on record as “about 0.9”.
